{"source": "patent US20130189714A1", "about": "“METHOD FOR THE DETECTION AND/OR QUANTIFICATION OF THE INTERACTION OF PLATELETS WITH INTERACTION PARTNERS” (SANOFI, priority 2010, published 2013)", "key": {"[1]": {"tested_on": "interaction of platelets with collagen 1 (rat tail)", "test": "platelet-collagen 1 interaction assay (counter-screen)", "type": "cell-based, human", "conditions": "test substances at 10 μM", "method": "For this assay essentially the same set up was used as described above for testing the adhesion of platelets onto A1-coated plates.\nTo coat wells with rat tail collagen1, a stock solution consisting of 200 μg/ml Collagen I (rat tail, SIGMA (C8897)) in 0.01 M acetic acid was prepared. This solution was diluted with 0.01 M acetic acid to 10 μg/ml and 25 μl was added to a 384 well. Plates were incubated overnight at 4 C for binding of collagen1 to the well. One hour before test substance addition, the wells of the plates were blocked with BSA as described above. Also the preparation, labeling and dispension of platelets was as described for vWF-A1. For the platelet adhesion to collagen I, the concentration of MgCl2 was increased to 4 mM and the number of platelets added per well to 50 000 platelets. Using these conditions, the assay was able to detect the interaction of specific inhibitors with good statistical parameters, see FIG. 11.\nA set of 6 plates were tested under automated conditions. For all plates a Z′ value above 0.5 was obtained with a S/B of 20 or more.\nA training set composed 69 test substances in total was used to validate this assay. […]"}, "[2]": {"target": "T1, interaction of platelets (GPIb) with vWF-A1 domain (Homo sapiens, UniProt P07359)", "T1 construct": "it is advantageous to use whole platelets instead of the isolated GpIb protein; host or cells: human platelets from platelet concentrate", "T1 sequence (P07359 17-652)": "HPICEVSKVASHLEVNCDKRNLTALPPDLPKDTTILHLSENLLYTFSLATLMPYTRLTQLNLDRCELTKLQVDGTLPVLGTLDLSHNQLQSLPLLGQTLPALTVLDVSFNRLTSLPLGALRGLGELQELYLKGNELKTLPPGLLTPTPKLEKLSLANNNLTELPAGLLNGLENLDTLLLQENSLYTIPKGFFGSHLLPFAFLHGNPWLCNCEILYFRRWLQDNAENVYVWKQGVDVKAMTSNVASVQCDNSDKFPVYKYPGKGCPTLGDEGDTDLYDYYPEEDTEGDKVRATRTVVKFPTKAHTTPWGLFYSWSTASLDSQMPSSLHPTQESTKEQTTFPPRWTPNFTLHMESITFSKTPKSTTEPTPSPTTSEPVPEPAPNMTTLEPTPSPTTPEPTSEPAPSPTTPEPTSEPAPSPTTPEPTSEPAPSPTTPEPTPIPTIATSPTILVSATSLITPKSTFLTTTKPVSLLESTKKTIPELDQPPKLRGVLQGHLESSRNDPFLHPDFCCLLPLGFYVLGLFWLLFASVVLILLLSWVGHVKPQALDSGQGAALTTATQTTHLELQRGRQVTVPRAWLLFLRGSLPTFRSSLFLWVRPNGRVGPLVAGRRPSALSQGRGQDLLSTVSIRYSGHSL", "T1 sequence (P13224 26-206 partner)": "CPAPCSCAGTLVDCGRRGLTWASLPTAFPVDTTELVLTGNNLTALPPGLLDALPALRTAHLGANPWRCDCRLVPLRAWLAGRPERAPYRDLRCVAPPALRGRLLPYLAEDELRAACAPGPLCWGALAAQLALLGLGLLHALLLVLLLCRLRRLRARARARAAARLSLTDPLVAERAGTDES", "T1 sequence (P14770 17-177 partner)": "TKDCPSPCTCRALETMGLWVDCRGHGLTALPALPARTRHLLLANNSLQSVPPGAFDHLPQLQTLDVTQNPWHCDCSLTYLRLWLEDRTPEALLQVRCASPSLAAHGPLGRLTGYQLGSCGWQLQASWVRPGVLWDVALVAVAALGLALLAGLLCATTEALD", "test": "platelet adhesion to wells coated with vWF-A1 (calcein-AM labelled platelets, Acumen laser-scanning cytometry)", "type": "cell-based", "method": "25 μl of the TBS-vWF-A1-Coating/Blocking-Puffer 1× (containing 15 μg/ml vWF-A1) is added sterile per well using a Multidrop from Labsystems. Plates were incubated and stored minimally overnight up to one week. Storage is at 4 C, sterile and protected against evaporation.\nOne hour before test substance addition, the wells of the plates were blocked with BSA. Before the wells were washed with 1×TBS-Washbuffer, 60 μl/Well using an ELx405 Microplate Washer (96 wells) from Biotek.\nImmediately after (wells should not dry out) the wells were blocked 5% BSA-Fatty acid free 40 μl/Well using a Multidrop from Labsystems. Wells were incubated 1-2 hours until test substances were added.\nSealed plates delivered from test substance management were stored at −20° C. until use. Test substances were dissolved in 100% DMSO at 3 mM. Test substances were diluted in TBS-Adhaesionbuffer 1× till 10 μM final concentration. Diluted test substance were stored at RT and used within hours. HTS occurred in single-point determination.\nSurplus of BSA is washed away by washing the wells with 1×TBS-Washbuffer, 60 μl/Well using an ELx405 Microplate Washer (96 wells) from Biotek, followed by the addition of 10 μl test substance solution or high and low control using Cybio robotics. Plates were not allowed to dry out.\nLOW-Control: no vWF-A1-Coating, just BSA-treated plates for blocking HIGH-Control: vWF-A1+ Standard (non-toxic GPIb inhibitor) vWF-A1+ and OS-1 10 μM\nThe total time needed between removing the platelets from the platelet concentrate, as obtained from the German Red Cross and disoensing the platelets into the multiwall plates should be between 45-60 mins.\nThe bag containing the platelet concentrate, as obtained from the German Red Cross, is removed from the agitation table (see 1.2; cells) and is put in a sterile flow cabinet on an absorbing towel to absorb any spills. The tubing, tube clamps and scissors are sterilized with 70% ethanol in water.\nThe tubing from the bag with platelet concentrate is clamped and the tubing is cut. The clamp is released and the first ca. 10 ml concentrate that comes out of the bag is discarded. 30 ml concentrate is poured into n 50 ml BD-Falcon tube made of polypropylene.\nNext, 2.5 μl PGE-stock (0.5 mg/ml) is added to an empty 12 ml round-bottom tube made of polypropylene (Greiner). To this 5 ml platelet concentrate is added (final concentration of PGE1 is 0.25 μg/ml) and the tube is gently mixed and incubated 5 min at RT. […]"}}, "note": "Residues, ends and D or L forms follow the SMILES beside them."}
{"smiles": "CSCC[C@@H]1NC(=O)[C@H](CCCNC(=N)N)NC(=O)[C@H](CCC(=O)O)NC(=O)[C@H]([C@@H](C)O)NC(=O)[C@@H](N)CSSC[C@@H](C(=O)O)NC(=O)[C@H](CC(C)C)NC(=O)[C@H](CC(N)=O)NC(=O)[C@H](Cc2c[nH]cn2)NC(=O)[C@H](CC(C)C)NC(=O)[C@H](C)NC1=O", "note": "[OS-1] (HELM PEPTIDE1{C.T.E.R.M.A.L.H.N.L.C}$PEPTIDE1,PEPTIDE1,1:R3-11:R3$$$V2.0; N-terminus and C-terminus assumed)", "values": [{"measurement": "inhibition of the platelet interaction with collagen", "setting": "[1]", "result": "did not inhibit"}, {"measurement": "inhibition at 10 µM", "setting": "[2]; OS-1 at 10 μM, optimized washer settings, FIG. 6", "result": "~90", "unit": "%"}, {"measurement": "inhibition by OS-1 during fully automated run of 30 plates", "setting": "[2]; all plates of the run, FIG. 9", "result": "high inhibition"}, {"measurement": "inhibition of platelet attachment to vWF-A1 (in words)", "setting": "[2]; optimized washer program, FIG. 6 legend", "result": "almost complete inhibition"}, {"measurement": "effect of increasing plate storage times on inhibition", "setting": "[2]; prolonged storage at room temperature, FIG. 8", "result": "almost constant values"}]}
